Reference: patent US10973810B2, “Methods for the treatment of neurological disorders” (Yumanity Therapeutics, Inc., priority 2017, dated 2021)

Legend:
Format in all cases: cell-based
[1] = tested on: A53T α-synuclein transfected human iPSC-derived neurons; experiment: Neuron survival, A53T α-synuclein transfected human iPSC-derived neurons; conditions: all tested concentrations (3 μM to 0.3 μM); relative to DMSO controls
Protocol: FIG. 16 is a graph illustrating that non-selective SCD reference inhibitor, CAY10566, reduces risk of death in A53T α-synuclein transfected human iPSC-derived neurons. Human iPSC-derived neurons were co-transfected with a fluorescence reporter plasmid encoding RFP (morphology tracer) and control plasmid (empty) or plasmid containing α-synuclein-A53T mutation (syn-A53T). Neuron groups as indicated were treated with either DMSO or CAY10566 at the indicated doses. The lifetimes of single neurons were tracked over time based on either loss of RFP fluorescence signal or morphological indicators of neuron death such as loss of neurites or cell blebbing. […] Cox proportional hazard analysis was used to estimate relative risk of death, or hazard ratio (HR) and the P value was determined by the logrank test. […]
FIG. 17 is a graph illustrating that an SCD5-selective inhibitor reduces risk of death in A53T α-synuclein transfected human iPSC-derived neurons. Human iPSC-derived neurons were co-transfected with a fluorescence reporter plasmid encoding RFP (morphology tracer) and control plasmid (empty) or plasmid containing α-synuclein-A53T mutation (syn-A53T). […] The lifetimes of single neurons were tracked over time based on either loss of RFP fluorescence signal or morphological indicators of neuron death such as loss of neurites or cell blebbing. […]

[2] = tested on: alpha-synuclein (A53T) transfected rat cortical neurons; experiment: Neurite degeneration assay in transfected rat cortical neurons
Protocol: Rat primary cortical neurons cultured in 96-well plates (Greiner Bio-One) were co-transfected with a fluorescence reporter plasmid (encoding mKate2) and empty or alpha-synuclein-A53T overexpression plasmids by lipofection at 5-6 div (days in vitro). LIPOFECTAMINE® 2000 transfection reagent (Thermo Fisher) (0.5 μl/well) was diluted in NEUROBASAL® media (Thermo Fisher) and incubated for 5-10 min. The LIPOFECTAMINE®/NEUROBASAL® mixture was then added dropwise to a plasmid cocktail diluted in NEUROBASAL® media, and incubated for approximately 40 min. During this time, conditioned media on the neurons was replaced with media containing 1× kynurenic Acid (Sigma-Aldrich) in NEUROBASAL® media (NBKY). LIPOFECTAMINE®/DNA complex solutions were subsequently added dropwise to neurons in the NBKY media in the 96-well plate. Lipofection was carried out for 30-40 min in a standard cell culture incubator (37° C., 5% CO2). Neurons were then washed with NEUROBASAL® media, and 50% conditioned/50% fresh NEUROBASAL® media containing B-27 supplement and GlutaMax™ (Thermo Fisher) (NBM) was applied to the cultures.
Transfected rat cortical neuron cultures were treated with DMSO or CAY10566 compound 4-6 h post-transfection. […] Neurite lengths of transfected neurons were tracked by an RFP reporter, mKate2, and measured by NeuroTrack™ Software Module (Essen Bioscience). […]

human SCD1 = target: T1, human SCD1 (Homo sapiens, UniProt O00767); experiment: Growth of humanized yeast surviving solely on human SCD1; conditions: growth inhibition
T1 construct: host or cells: S. cerevisiae ole1Δ strain (W303 pdr1Δ pdr3Δ background), plasmid pRS316 with TDH3 promoter and CYC1 terminator
T1 sequence (O00767 1-359): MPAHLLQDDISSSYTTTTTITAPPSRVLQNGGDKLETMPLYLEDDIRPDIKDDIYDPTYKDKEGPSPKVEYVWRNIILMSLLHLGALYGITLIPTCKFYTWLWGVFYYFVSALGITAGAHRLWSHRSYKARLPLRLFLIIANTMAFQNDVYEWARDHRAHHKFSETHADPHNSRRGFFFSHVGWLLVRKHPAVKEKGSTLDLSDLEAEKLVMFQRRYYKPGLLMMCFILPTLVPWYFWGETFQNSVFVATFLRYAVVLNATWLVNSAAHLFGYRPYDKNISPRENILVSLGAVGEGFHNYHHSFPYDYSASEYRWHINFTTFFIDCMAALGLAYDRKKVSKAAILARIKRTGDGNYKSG
Text: The coding sequence of yeast OLE1 was also cloned into this plasmid). These clones were then transformed into the ole1d strain and plated on CSM-Ura media (CSM lacking uracil) with 2% glucose (w/v) and independent colonies were isolated and amplified.
For experiments using a plasmid-borne copy of Ole1, SCD1, or SCD5 (FIGS. 3B, 6, and 7), media lacking uracil (SX-Ura, where X is glucose, raffinose, or galactose), was used for all steps of the compound profiling protocol to ensure its maintenance throughout the assay.
After yeast delivery, assay plates were incubated under humidified conditions at 30° C. for 24 to 40 h. ApoE4 rescue experiments were stopped at 24 h, aSyn experiments at 40 h, Ole1 at 24 h, and SCD1/SCD5 at 40 h. The growth of yeast was monitored by reading the OD600 of each well using a microplate reader (Perkin Elmer EnVision™).

SMILES: Cc1nnc(-c2ccc(N3CCC(Oc4cc(F)ccc4Cl)CC3)nn2)o1 [CAY10566]
- risk of neuron death [1]: significantly reduced
- neurite degeneration at highest concentrations ([2]; 10 nM and 3 nM, overlapping with control cultures not transfected with alpha-synuclein A53T): complete rescue
- neurite degeneration ([2]; titration from 10 nM down to 10 pM, tracked every 6 h for 7 d, relative to DMSO): concentration-dependent decrease in neurite degeneration
- half-maximal inhibitory concentration (IC50), SCD1 humanized strain (human SCD1): low nanomolar
